Test results taken from PubChem BioAssay (NCI).
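1) Cells in 96-well plates. 2) Compound, 48 h, 5 concentrations. 3) Linear interpolation between surrounding doses. 4) Unreached endpoint = highest concentration. TGI is the concentration that stops growth completely.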

Columns and labels:
Assay in all cases: growth of human tumour cells (NCI), 48 h
MOLT-4 leukemia = test system: MOLT-4 leukemia
OVCAR-3 ovarian = test system: OVCAR-3 ovarian
OVCAR-8 ovarian = test system: OVCAR-8 ovarian
M19-MEL melanoma = test system: M19-MEL melanoma
KM12 colon = test system: KM12 colon
NCI-H460 lung = test system: NCI-H460 lung
SNB-19 CNS = test system: SNB-19 CNS
NCI-H226 lung = test system: NCI-H226 lung
UO-31 renal = test system: UO-31 renal
HCT-15 colon = test system: HCT-15 colon
SNB-78 CNS = test system: SNB-78 CNS
A549 NSCLC = test system: A549 NSCLC
DMS 114 small cell lung = test system: DMS 114 small cell lung
NCI-H522 lung = test system: NCI-H522 lung
A498 renal = test system: A498 renal
SK-OV-3 ovarian = test system: SK-OV-3 ovarian
OVCAR-5 ovarian = test system: OVCAR-5 ovarian
MALME-3M melanoma = test system: MALME-3M melanoma
EKVX NSCLC = test system: EKVX NSCLC
RXF 393 renal = test system: RXF 393 renal
UACC-62 melanoma = test system: UACC-62 melanoma
SK-MEL-28 melanoma = test system: SK-MEL-28 melanoma
KM20L2 colon = test system: KM20L2 colon
HCT-116 colon = test system: HCT-116 colon
UACC-257 melanoma = test system: UACC-257 melanoma
SF-539 CNS = test system: SF-539 CNS
M14 melanoma = test system: M14 melanoma
COLO 205 colon = test system: COLO 205 colon
U251 CNS = test system: U251 CNS
786-0 renal = test system: 786-0 renal
TK-10 renal = test system: TK-10 renal
HOP-18 NSCLC = test system: HOP-18 NSCLC
OVCAR-4 ovarian = test system: OVCAR-4 ovarian
SF-295 CNS = test system: SF-295 CNS
LOX IMVI melanoma = test system: LOX IMVI melanoma
K-562 leukemia = test system: K-562 leukemia
DLD-1 colon = test system: DLD-1 colon
LXFL 529 NSCLC = test system: LXFL 529 NSCLC
HL-60(TB) leukemia = test system: HL-60(TB) leukemia
ACHN renal = test system: ACHN renal
HOP-62 NSCLC = test system: HOP-62 NSCLC
SNB-75 CNS = test system: SNB-75 CNS
CCRF-CEM leukemia = test system: CCRF-CEM leukemia
SN12C renal = test system: SN12C renal
HT29 colon = test system: HT29 colon
XF 498 CNS = test system: XF 498 CNS
HCC-2998 colon = test system: HCC-2998 colon
SF-268 CNS = test system: SF-268 CNS
SK-MEL-2 melanoma = test system: SK-MEL-2 melanoma
NCI-H23 lung = test system: NCI-H23 lung
RPMI-8226 leukemia = test system: RPMI-8226 leukemia
HOP-92 NSCLC = test system: HOP-92 NSCLC
SK-MEL-5 melanoma = test system: SK-MEL-5 melanoma
IGROV1 ovarian = test system: IGROV1 ovarian
CAKI-1 renal = test system: CAKI-1 renal
SR leukemia = test system: SR leukemia
RXF-631 renal = test system: RXF-631 renal
DMS 273 small cell lung = test system: DMS 273 small cell lung
SW-620 colon = test system: SW-620 colon

Measured: TGI

O=C(CC1(O)C(=O)Nc2ccc([N+](=O)[O-])cc21)c1ccc(Br)cc1 (stereo not given)
45.7 µM: HL-60(TB) leukemia
69.5 µM: TK-10 renal
76.7 µM: SNB-75 CNS
47.9 µM: NCI-H522 lung
50.3 µM: A498 renal
69 µM: M19-MEL melanoma
51 µM: U251 CNS
71.1 µM: RXF 393 renal
not listed: HOP-92 NSCLC | SK-MEL-5 melanoma | IGROV1 ovarian | CAKI-1 renal | SR leukemia | RXF-631 renal | DMS 273 small cell lung | SW-620 colon
> 100 µM: all other assays above

c1ccc(N2N=NC3C4CC(C5c6ccccc6C45)C32)cc1 (stereo not given)
82.7 µM: HCT-116 colon
40.3 µM: HT29 colon
47.5 µM: DMS 114 small cell lung
44.1 µM: RXF 393 renal
54.6 µM: HOP-92 NSCLC
39.6 µM: LOX IMVI melanoma
69.4 µM: MALME-3M melanoma
76.4 µM: UACC-257 melanoma
85.5 µM: HL-60(TB) leukemia
73.4 µM: MOLT-4 leukemia
38.5 µM: XF 498 CNS
50.9 µM: NCI-H522 lung
72.1 µM: UO-31 renal
75.9 µM: NCI-H23 lung
46.7 µM: M19-MEL melanoma
38.3 µM: SK-MEL-5 melanoma
96.3 µM: NCI-H226 lung
not listed: SK-MEL-28 melanoma | HOP-18 NSCLC | ACHN renal | HCC-2998 colon | SK-MEL-2 melanoma
> 100 µM: all other assays above
